The results in this text go back to PubChem BioAssay (NCI).

Holding throughout (assay): NCI-60 cell line screen, 48 h
Test [1] has as its system DU-145 prostate.
In test [2] the test system is EKVX NSCLC.
Test [3] concerns NCI-H226 lung.
Test [4] has as its system NCI-H23 lung.
Test [5] relates to OVCAR-8 ovarian.
Test [6] deals with RXF 393 renal.
Test [7] concerns SK-OV-3 ovarian.
Test [8] has as its system UACC-62 melanoma.
Test [9] deals with UO-31 renal.
The subject of test [10] is HL-60(TB) leukemia.

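How tested: cells in 96-well plates exposed to compound for 48 hours at five concentrations. Abbreviation: GI50, concentration required for 50% inhibition of growth. TGI marks complete inhibition of growth.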 A value given as a limit tells only on which side of the number the result lay.

In the case of `COc1cc(/C=C2\CC3C4CC=C5C[C@@H](OC(C)=O)CC[C@]5(C)C4CC[C@]3(C)C2=O)ccc1OCCN1CCCCC1` (stereo partly specified), the GI50 in test [1] is 5.18 µM; in test [2] it was 13.7 µM; in test [3], 11.8 µM; in test [4] it was 10.4 µM; in test [5] it was 4.27 µM; in test [6], 2.95 µM. Further, the results for the GI50 in test [7], in test [8] and in test [9] were 2.75 µM, 1.99 µM and 1.98 µM, respectively. In addition, the TGI in test [1] came to 17.4 µM; in [2], 27.4 µM; in test [3] it was 28.6 µM; in test [4], 22.2 µM; in test [5] it was 28.2 µM; in test [6], 14.6 µM. Also, the TGI in [7] came out at 8.5 µM; in test [8], 3.66 µM; in test [9] it was 4.99 µM.
Turning to `Clc1c(Cl)[n+](Cc2ccc3ccccc3c2)cn1Cc1ccc2ccccc2c1`, the GI50 in test [1] is 1.53 µM; in test [2], 1.83 µM; in [4], 1.35 µM; in [5], 1.65 µM; in test [6], 1.63 µM; in test [7] it was 1.39 µM. Moreover, the GI50 in test [8] was 1.13 µM; in test [9], 1.72 µM. The TGI stood at 3.01 µM in test [1]; 4.98 µM in test [2]; 3.15 µM in test [4]; 3.3 µM in test [5]; 3.1 µM in [6]; 3.75 µM in test [7]. Also, the TGI was 2.45 µM in test [8] and 4.56 µM in test [9].
With `C=CN(C(=O)N1CCN(c2cc3c(cc2F)c(=O)c(C(=O)O)cn3C2CC2)CC1)c1nc(-c2ccc(OC)cc2)cs1`, the GI50 was 3.93 µM in test [1]; 4.12 µM in [2]; 2.9 µM in test [3]; 3.48 µM in test [4]; 3.3 µM in [5]; 5.2 µM in [6]. Moreover, the GI50 in [9] is 2.1 µM. The TGI was above 100 µM in test [1]; above 100 µM in test [2]; above 100 µM in [3]; 14.9 µM in test [4]; 15.5 µM in test [5]; 45.1 µM in test [6]. The molecule further gave a TGI in test [9] above 100 µM.
Consider `OCC1C(OCc2ccccc2)C(OCc2ccccc2)C(OCc2ccccc2)CN1Cc1ccccc1` (stereo unspecified), for which the TGI in test [1] was above 100 µM; in test [2] it was above 100 µM; in [3], above 100 µM; in test [4], 53.3 µM; in [5], above 100 µM; in test [6], 48.4 µM. For the same molecule, the TGI in test [7] is above 100 µM; in test [8] it was above 100 µM; in test [9], 37.3 µM.
As to `COc1cc(/C=C/c2cc(/C=C/c3ccc(O)c(OC)c3)n(C(=O)c3ccc(Cl)cc3)n2)ccc1O`, the GI50 in [1] was 3.03 µM; in test [10] it was 1.58 µM; in test [3], 3.51 µM; in test [4], 2.35 µM; in test [5], 2.8 µM; in test [7] it was 1.83 µM. Besides, the figures for the GI50 in test [8] and in [9] were 2.72 µM and 1.39 µM, respectively. Also, the TGI in [1] came out at 13.9 µM; in [10], 7.62 µM; in test [3] it was 23.2 µM; in test [4] it was 7.95 µM; in test [5] it was 8.14 µM; in test [7], 4.35 µM. In addition, the TGI in [8] and in test [9] was 10.1 µM each time.
In the case of `O=C(NCCCCN1CCOCC1)c1cc2ccccc2o1`, the GI50 in [1], in test [2], in [3], in test [4], in [5] and in test [6] was above 100 µM throughout. Moreover, the GI50 in test [7], in [8] and in [9] was above 100 µM in each case. Besides, the TGI in [1], in [2], in test [3], in [4], in test [5] and in test [6] was above 100 µM in each case. For the same molecule, the TGI in test [7], in test [8] and in test [9] was above 100 µM in each case.
With `Cc1c(C)n(CCCN2CCN(C)CC2)c2ccc(Oc3cccc(C(=O)N4CCN(CCc5ccc(F)cc5)CC4)c3)cc12`, the GI50 in [1] is 1.86 µM; in [2], 1.65 µM; in test [4], 1.85 µM; in test [6], 1.59 µM; in test [7] it was 1.91 µM; in test [8] it was 1.87 µM. Moreover, the GI50 in test [9] was 1.23 µM. In addition, the TGI in test [1] is 3.6 µM; in [2] it was 3.12 µM; in test [4], 3.49 µM; in test [6] it was 3.06 µM; in test [7], 3.62 µM; in test [8], 3.58 µM. Further, the TGI in test [9] is 2.52 µM.
Take `O=C1[C@H]2ON(c3ccccc3)C(c3ccc([N+](=O)[O-])cc3)[C@H]2C(=O)N1c1ccc(Cc2ccc(N3C(=O)[C@@H]4ON(c5ccccc5)C(c5ccc([N+](=O)[O-])cc5)[C@@H]4C3=O)cc2)cc1` (stereo partly specified): the TGI in [2], in [10], in test [3], in test [4], in test [5] and in [6] was above 100 µM each time. Besides, the TGI in [7], in [8] and in test [9] was above 100 µM in each case.
As to `CCc1cccc(C(C)C)c1NC(=O)C(=O)C1C(=O)Nc2ccccc2S1=O` (stereo unspecified), the TGI in test [1], in [2], in test [3], in test [4], in test [5] and in test [6] was above 100 µM throughout. Also, the TGI in test [7], in [8] and in test [9] was above 100 µM throughout.
For the molecule `Cc1nc([N+](=O)[O-])cn1-c1nc2ccccn2c1[N+](=O)[O-]`, the TGI in test [1] is 83.6 µM; in [2], above 100 µM; in test [3], above 100 µM; in test [4] it was above 100 µM; in test [5], above 100 µM; in [6], 44.5 µM. The TGI in test [7], in test [8] and in test [9] was above 100 µM in each case.
With `CCOC(=O)c1cc(C(=O)c2ccc(OC)cc2)n2ccc(/C=C/c3cc[n+](CC(=O)c4ccc(OC)cc4)cc3)cc12`, the GI50 in test [1] was 2.05 µM; in [2] it was 2.8 µM; in [10] it was 1.78 µM; in [4] it was 2.22 µM; in [5] it was 2.02 µM; in test [7] it was above 100 µM. In test [9], the GI50 is above 100 µM. Further, the TGI in [1] is 5.16 µM; in [2], above 100 µM; in test [10], 4.24 µM; in test [4], 5.5 µM; in test [5], 8.32 µM; in [7] it was above 100 µM. This molecule came in with a TGI in test [9] above 100 µM.
As to `C=CCNC(=O)NCCCCC(NC(C)=O)C(=O)NCc1ccccc1` (stereo unspecified), the TGI in test [2], in [10], in test [3], in test [4], in test [5] and in [6] was above 100 µM in each case. Also, the TGI in test [7], in test [8] and in test [9] was above 100 µM throughout.
In the case of `O=C(CSc1nc2c(n1Nc1ccccc1)-c1ccccc1SC2)Nc1nc(-c2ccc(Cl)cc2)cs1`, the GI50 in [1] was above 100 µM; in test [2], 23.6 µM; in test [3], 29.9 µM; in test [4], 6.48 µM; in [5], 6.42 µM; in [6], 15.8 µM. Besides, the GI50 in [7] was 11.8 µM; in test [8], 13.5 µM; in test [9] it was above 100 µM. The TGI was above 100 µM in test [1]; above 100 µM in test [2]; above 100 µM in [3]; 97.1 µM in test [4]; above 100 µM in test [5]; 43.4 µM in [6]. Besides, the TGI in [7] was 29.5 µM; in test [8] it was above 100 µM; in [9] it was above 100 µM.
Turning to `COc1ccc(/C=C\c2cc(OC)c(OC)c(OC)c2)cc1OCC(=O)Nc1nc2ccc(F)cc2s1`, the GI50 was 8.97 µM in test [1]; 5.72 µM in test [2]; 5.6 µM in [3]; 4.26 µM in [4]; 7.15 µM in test [5]; 6.29 µM in [6]. The GI50 is 8 µM in [7], 4.05 µM in [8] and 2.56 µM in [9]. Also, the TGI in test [1], in test [2], in test [3], in test [4], in test [5] and in [6] was above 100 µM each time. Also, the TGI in test [7], in test [8] and in test [9] was above 100 µM in each case.
